Measured values: ChEMBL document CHEMBL1201862, “PubChem BioAssay data set” (2004)
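Briefly, cells in 96-well plates were exposed to five compound concentrations for 48 h, and endpoints were estimated by linear interpolation. GI50: concentration for 50% inhibition of growth.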 Activity calls are given as the source filed them. No stated cut-off is given here; in the data, active = GI50 up to about 1.1 µM and inactive = higher.

Experiments:
Test in all cases: NCI anticancer screen, dose series, 48 h
HOP-92 = test system: HOP-92
LOX IMVI = test system: LOX IMVI
Hs-578T = test system: Hs-578T
MDA-N = test system: MDA-N
NCI-H460 = test system: NCI-H460
NCI-H226 = test system: NCI-H226
MDA-MB-435 = test system: MDA-MB-435
BT-549 = test system: BT-549
786-0 = test system: 786-0
SF-268 = test system: SF-268
HCT-15 = test system: HCT-15
KM12 = test system: KM12
PC-3 = test system: PC-3
SK-OV-3 = test system: SK-OV-3
TK-10 = test system: TK-10
OVCAR-5 = test system: OVCAR-5
HL-60 = test system: HL-60
UO-31 = test system: UO-31
RXF 393 = test system: RXF 393
IGROV-1 = test system: IGROV-1
MOLT-4 = test system: MOLT-4
SN12C = test system: SN12C
Malme-3M = test system: Malme-3M
UACC-257 = test system: UACC-257
ACHN = test system: ACHN
MDA-MB-231 = test system: MDA-MB-231
SNB-19 = test system: SNB-19
NCI-H23 = test system: NCI-H23
RPMI-8226 = test system: RPMI-8226
OVCAR-3 = test system: OVCAR-3
SW-620 = test system: SW-620
NCI-H522 = test system: NCI-H522
K562 = test system: K562
SK-MEL-28 = test system: SK-MEL-28
SK-MEL-2 = test system: SK-MEL-2
COLO 205 = test system: COLO 205
UACC-62 = test system: UACC-62
HT-29 = test system: HT-29
A498 = test system: A498
HOP-62 = test system: HOP-62
U-251 = test system: U-251
DU-145 = test system: DU-145
SR = test system: SR
CAKI-1 = test system: CAKI-1
SF-295 = test system: SF-295
EKVX = test system: EKVX
HCC 2998 = test system: HCC 2998
MCF7 = test system: MCF7
OVCAR-4 = test system: OVCAR-4
CCRF-CEM = test system: CCRF-CEM
HCT-116 = test system: HCT-116
SK-MEL-5 = test system: SK-MEL-5
OVCAR-8 = test system: OVCAR-8
A549 = test system: A549
SNB-75 = test system: SNB-75
M14 = test system: M14
NCI/ADR-RES = test system: NCI/ADR-RES

## S=c1nc(Nc2ccc(Cl)cc2)c2c3c(sc2[nH]1)CCCC3
HOP-92
  GI50: 76 µM (inactive)
LOX IMVI
  GI50: > 100 µM (inactive)
Hs-578T
  GI50: > 100 µM (inactive)
MDA-N
  GI50: > 100 µM (inactive)
NCI-H460
  GI50: > 100 µM (inactive)
NCI-H226
  GI50: > 100 µM (inactive)
MDA-MB-435
  GI50: > 100 µM (inactive)
BT-549
  GI50: > 100 µM (inactive)
786-0
  GI50: > 100 µM (inactive)
SF-268
  GI50: > 100 µM (inactive)
HCT-15
  GI50: > 100 µM
KM12
  GI50: > 100 µM (inactive)
PC-3
  GI50: 57.7 µM (inactive)
SK-OV-3
  GI50: > 100 µM (inactive)
TK-10
  GI50: > 100 µM (inactive)
OVCAR-5
  GI50: > 100 µM (inactive)
HL-60
  GI50: 54 µM (inactive)
UO-31
  GI50: > 100 µM (inactive)
RXF 393
  GI50: > 100 µM (inactive)
IGROV-1
  GI50: > 100 µM (inactive)
MOLT-4
  GI50: 64.7 µM (inactive)
SN12C
  GI50: > 100 µM (inactive)
Malme-3M
  GI50: > 100 µM (inactive)
UACC-257
  GI50: > 100 µM (inactive)
ACHN
  GI50: 74.5 µM (inactive)
MDA-MB-231
  GI50: > 100 µM (inactive)
SNB-19
  GI50: > 100 µM (inactive)
NCI-H23
  GI50: 45.1 µM (inactive)
RPMI-8226
  GI50: 24.4 µM (inactive)
OVCAR-3
  GI50: > 100 µM (inactive)
SW-620
  GI50: > 100 µM (inactive)
NCI-H522
  GI50: 37 µM (inactive)
K562
  GI50: 38.5 µM (inactive)
SK-MEL-28
  GI50: > 100 µM (inactive)
SK-MEL-2
  GI50: > 100 µM (inactive)
COLO 205
  GI50: > 100 µM (inactive)
UACC-62
  GI50: > 100 µM (inactive)
HT-29
  GI50: > 100 µM (inactive)
A498
  GI50: > 100 µM (inactive)
HOP-62
  GI50: > 100 µM (inactive)
U-251
  GI50: > 100 µM (inactive)
DU-145
  GI50: > 100 µM (inactive)
SR
  GI50: > 100 µM (inactive)
CAKI-1
  GI50: > 100 µM (inactive)
SF-295
  GI50: > 100 µM (inactive)
EKVX
  GI50: > 100 µM (inactive)
HCC 2998
  GI50: 43.4 µM (inactive)
MCF7
  GI50: 90.2 µM (inactive)
OVCAR-4
  GI50: > 100 µM (inactive)
CCRF-CEM
  GI50: 36.2 µM (inactive)
HCT-116
  GI50: > 100 µM (inactive)
SK-MEL-5
  GI50: > 100 µM (inactive)

## Cc1cccc(CNNC(=O)c2cc[n+]([BH2-]C#N)cc2)c1
HOP-92
  GI50: 4.47 µM (inactive)
LOX IMVI
  GI50: 20.1 µM (inactive)
Hs-578T
  GI50: 21.6 µM (inactive)
MDA-N
  GI50: 29.2 µM (inactive)
NCI-H460
  GI50: 36.5 µM (inactive)
NCI-H226
  GI50: 23.9 µM (inactive)
MDA-MB-435
  GI50: 28.3 µM (inactive)
OVCAR-8
  GI50: 24.6 µM (inactive)
BT-549
  GI50: 42.5 µM (inactive)
786-0
  GI50: 30.7 µM (inactive)
SF-268
  GI50: 26.7 µM (inactive)
HCT-15
  GI50: 21.4 µM
A549
  GI50: 39.1 µM (inactive)
KM12
  GI50: 22.6 µM (inactive)
PC-3
  GI50: 31.6 µM (inactive)
SK-OV-3
  GI50: 43.6 µM (inactive)
TK-10
  GI50: 53.7 µM (inactive)
OVCAR-5
  GI50: 37.5 µM (inactive)
HL-60
  GI50: 22.5 µM (inactive)
UO-31
  GI50: 48.1 µM (inactive)
RXF 393
  GI50: 22.4 µM (inactive)
IGROV-1
  GI50: 22 µM (inactive)
MOLT-4
  GI50: 28.2 µM (inactive)
SNB-75
  GI50: 21.7 µM (inactive)
Malme-3M
  GI50: 15 µM (inactive)
UACC-257
  GI50: 37.6 µM (inactive)
ACHN
  GI50: 42.6 µM (inactive)
MDA-MB-231
  GI50: 20.6 µM (inactive)
SNB-19
  GI50: 48.2 µM (inactive)
NCI-H23
  GI50: 18.6 µM (inactive)
RPMI-8226
  GI50: 24.8 µM (inactive)
OVCAR-3
  GI50: 32.1 µM (inactive)
SW-620
  GI50: 34 µM (inactive)
K562
  GI50: 26.9 µM (inactive)
SK-MEL-28
  GI50: 6.67 µM (inactive)
SK-MEL-2
  GI50: 34.9 µM (inactive)
COLO 205
  GI50: 16.5 µM (inactive)
UACC-62
  GI50: 62.7 µM (inactive)
HT-29
  GI50: 29.3 µM (inactive)
A498
  GI50: 24.7 µM (inactive)
HOP-62
  GI50: 38 µM (inactive)
U-251
  GI50: 39.5 µM (inactive)
DU-145
  GI50: 24.7 µM (inactive)
M14
  GI50: 37.9 µM (inactive)
SR
  GI50: 32.3 µM (inactive)
NCI/ADR-RES
  GI50: 24.7 µM (inactive)
CAKI-1
  GI50: 32.4 µM (inactive)
SF-295
  GI50: 36.1 µM (inactive)
EKVX
  GI50: 36.4 µM (inactive)
HCC 2998
  GI50: 22.4 µM (inactive)
MCF7
  GI50: 36.5 µM (inactive)
OVCAR-4
  GI50: 42 µM (inactive)
CCRF-CEM
  GI50: 23.9 µM (inactive)
HCT-116
  GI50: 23.3 µM (inactive)
SK-MEL-5
  GI50: 17.2 µM (inactive)
